From patent US20230365537A1, “POLO LIKE KINASE 4 INHIBITORS” (ORIC Pharmaceuticals, Inc., priority 2021, published 2023)

Assays:
[1] = target: human recombinant Aurora B (Homo sapiens (Human), UniProt Q96GD4); assay: Aurora B Kinase Biochemical Assay (ADP-Glo); settings: ratio of Aurora B IC50 to PLK4 IC50 (selectivity)
Method in brief: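 IC50 derived by four-parameter nonlinear fit of ADP-Glo luminescence (ADP produced). Compound was preincubated 15 min at RT with 20 nM recombinant human Aurora B, in 50 mM HEPES pH 7.5, 10 mM MgCl2, 1 mM EGTA, 1 mM DTT, 0.01% Brij-35/BSA.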

CHP-134 cells = assay: CHP134 CellTiter-Glo (CTG) Assay; assay type: cell-based; settings: Homo sapiens, CHP-134, 120 h, 5 days, viable cells by CellTiter-Glo
Method in brief: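 Nine-point 1:3 dilution series, diluted into growth media, added in quadruplicate to CHP-134 cells plated 16 h earlier at 200 cells/well.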

[2] = target: human recombinant Aurora A (Homo sapiens (Human), UniProt O14965); assay: Aurora A Kinase Biochemical Assay (ADP-Glo); settings: ratio of Aurora A IC50 to PLK4 IC50 (selectivity)
Sequence of human recombinant Aurora A (O14965 whole entry): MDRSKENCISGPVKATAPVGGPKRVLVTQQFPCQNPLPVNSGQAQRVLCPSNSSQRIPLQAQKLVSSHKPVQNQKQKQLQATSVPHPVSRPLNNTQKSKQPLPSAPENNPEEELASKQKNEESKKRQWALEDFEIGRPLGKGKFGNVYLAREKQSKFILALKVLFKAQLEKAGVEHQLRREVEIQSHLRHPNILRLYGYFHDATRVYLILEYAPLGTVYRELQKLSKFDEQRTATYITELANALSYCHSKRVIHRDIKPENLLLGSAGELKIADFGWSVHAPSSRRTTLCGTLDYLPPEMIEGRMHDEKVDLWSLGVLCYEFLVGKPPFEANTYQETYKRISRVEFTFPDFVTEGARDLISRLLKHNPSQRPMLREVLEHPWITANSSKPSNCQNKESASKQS

human recombinant PLK4 = human recombinant PLK4 (Homo sapiens (Human), UniProt O00444); assay: PLK4 Biochemical Assay (ADP-Glo); settings: 0.5 nM PLK4, 8.0 µM ATP, 4.7 µM MBP, 6 hours at RT
Sequence of human recombinant PLK4 (O00444 whole entry): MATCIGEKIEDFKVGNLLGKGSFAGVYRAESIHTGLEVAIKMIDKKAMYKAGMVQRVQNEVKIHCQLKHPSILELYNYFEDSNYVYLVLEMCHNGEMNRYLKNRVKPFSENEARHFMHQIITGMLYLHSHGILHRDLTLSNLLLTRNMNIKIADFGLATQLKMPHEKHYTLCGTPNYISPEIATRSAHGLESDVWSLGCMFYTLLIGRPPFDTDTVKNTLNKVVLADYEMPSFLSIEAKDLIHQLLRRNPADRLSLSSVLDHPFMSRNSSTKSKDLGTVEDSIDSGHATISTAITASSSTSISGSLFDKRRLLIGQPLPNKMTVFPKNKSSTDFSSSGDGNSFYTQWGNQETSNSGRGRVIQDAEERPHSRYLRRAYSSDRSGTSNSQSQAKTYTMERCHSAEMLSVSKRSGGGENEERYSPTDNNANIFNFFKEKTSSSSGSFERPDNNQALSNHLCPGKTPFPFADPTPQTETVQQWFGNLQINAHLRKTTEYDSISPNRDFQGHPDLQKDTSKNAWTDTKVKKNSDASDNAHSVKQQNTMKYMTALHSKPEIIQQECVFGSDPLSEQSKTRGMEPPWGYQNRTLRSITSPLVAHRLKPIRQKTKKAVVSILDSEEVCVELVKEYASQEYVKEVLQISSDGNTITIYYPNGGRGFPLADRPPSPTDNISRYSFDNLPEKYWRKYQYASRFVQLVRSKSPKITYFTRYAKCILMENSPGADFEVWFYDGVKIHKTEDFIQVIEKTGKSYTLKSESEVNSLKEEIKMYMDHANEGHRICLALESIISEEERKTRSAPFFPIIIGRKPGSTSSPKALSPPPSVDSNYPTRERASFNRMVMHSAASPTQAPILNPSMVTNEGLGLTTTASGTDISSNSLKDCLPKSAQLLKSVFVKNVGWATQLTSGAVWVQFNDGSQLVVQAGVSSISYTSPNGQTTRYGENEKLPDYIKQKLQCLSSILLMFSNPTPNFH
Method in brief: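 Luminescent ADP-Glo detection quantified ADP production, with ATP depletion for 40 min and detection for 30 min at room temperature. Compound and PLK4 (1.0 nM stock addition) were preincubated 15 min in HEPES pH 7.5 buffer containing MgCl2, EGTA, DTT, Brij-35 and BSA. IC50 values were obtained by four-parameter nonlinear regression.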

Sequence of human recombinant Aurora B (Q96GD4 whole entry): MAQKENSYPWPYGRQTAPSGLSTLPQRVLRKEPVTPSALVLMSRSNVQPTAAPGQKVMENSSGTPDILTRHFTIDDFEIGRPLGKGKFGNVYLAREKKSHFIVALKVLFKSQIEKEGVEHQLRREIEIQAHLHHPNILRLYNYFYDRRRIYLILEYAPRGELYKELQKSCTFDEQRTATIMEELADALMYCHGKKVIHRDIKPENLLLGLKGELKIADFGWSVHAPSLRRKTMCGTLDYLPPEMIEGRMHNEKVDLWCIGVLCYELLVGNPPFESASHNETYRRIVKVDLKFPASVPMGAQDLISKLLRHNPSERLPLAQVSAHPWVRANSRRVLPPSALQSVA

[Aurora B IC50 (nM)]/[PLK4 IC50 (nM)] [1]: 2173.2976
[Aurora A IC50 (nM)]/[PLK4 IC50 (nM)] [2]: 377.9648
IC50 (human recombinant PLK4): 2.61 nM
Compound: CCOc1cc(S(C)(=O)=O)cnc1Nc1n[nH]c2cc([C@@H]3C[C@@]34C(=O)Nc3ccc(Cl)cc34)ccc12 [Example 276, (1R,2S)-5′-chloro-2-(3-{[3-ethoxy-5-(methanesulfonyl)pyridin-2-yl]amino}-1H-indazol-6-yl)spiro[cyclopropane-1,3′-indol]-2′(1′H)-one]
IC50 (CHP-134 cells): 4080 nM
